Patent US5514662A, “Use of amphotericin B derivatives as protease inhibitors” (priority 1991, dated 1996)
Read-outs that look alike come from different tables or passages of the source.

Legend:
HRV14 = assay: Cytopathogenic effect of HRV14 in HeLa-Ohio cells; format: cell-based; settings: 0.03 to 100 μM, added 1 hour after infection
Procedure: HeLa-Ohio cells cultured until they have become confluent, are infected with a suspension of HRV14 virus. The cytopathogenic effect of the virus is evaluated by staining the cells with a 0.5% solution of crystal violet and 20% of methanol; after rinsing the plates with water, the optical density is read at 550 nm.
For the rest of the experiment, the cells are infected with a viral suspension with a titre such that 50% of the cells are killed after 3 days on control cells not receiving any treatment. 1 hour after the infection, the test product (AmB or DABF-AmB) is added at concentrations ranging from 0.03 to 100 μM. The percentage inhibition of the cytopathogenic effect is determined as follows:
OD (treated infected cells)-OD (infected cells)!
OD (healthy cells)-OD (infected cells)!
The effect of the addition of DABF-AmB was tested at various times: preincubation of the cells with DABF-AmB before the viral infection; addition of DABF-AmB at the time of the infection; addition of DABF-AmB after the infection, during the period of viral proliferation.

trypsin = target: T1, trypsin (Bos taurus, UniProt P00760); assay: Inhibition of trypsin; format: biochemical
T1 sequence (P00760 24-246): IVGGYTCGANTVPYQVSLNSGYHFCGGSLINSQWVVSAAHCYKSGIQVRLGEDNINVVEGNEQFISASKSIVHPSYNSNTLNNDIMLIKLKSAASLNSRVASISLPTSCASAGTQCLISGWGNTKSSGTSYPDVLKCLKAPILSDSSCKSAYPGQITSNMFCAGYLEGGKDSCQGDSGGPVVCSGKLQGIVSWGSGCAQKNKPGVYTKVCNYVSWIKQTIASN

HIV-1 [1] = settings: T cells infected in vitro; cited from earlier work
HIV-1 [2] = settings: cited from earlier work
HIV = settings: cited from earlier work
[3] = Cytotoxicity in HeLa-Ohio cells; format: cell-based, human; settings: human, hela-ohio cells; read-out: concentration above which cytotoxic
[4] = test system: DNA and RNA viruses containing a lipid envelope; settings: in vitro; cited from earlier work
[5] = patients; cited from earlier work
[6] = read-out: % inhibition of trypsin relative to a control without inhibitor

## CNC[C@H](O)[C@@H](O)[C@H](O)[C@H](O)CO [N-methylglucamine, reference compound]
HRV14
  antiviral activity on HRV14 (in words): no effect on the virus

## COC(=O)[C@H]1[C@@H]2C[C@@H](O[C@@H]3O[C@H](C)[C@@H](O)[C@H](N)[C@@H]3O)/C=C/C=C/C=C/C=C/C=C/C=C/C=C/[C@H](C)[C@@H](O)[C@@H](C)[C@H](C)OC(=O)C[C@H](O)C[C@H](O)CC[C@@H](O)[C@H](O)C[C@H](O)C[C@](O)(C[C@@H]1O)O2 [AME, methyl ester of amphotericin B]
trypsin; [6]
  inhibition at 1 µM: ~10%
HIV-1 [1]
  inhibition of cell death and of viral expression: inhibitors of cell death and of viral expression
HIV-1 [2]; HIV-infected lymphocytes preincubated
  capacity of preincubated HIV-infected lymphocytes to form syncytia with uninfected cells: increased
HIV-1 [2]; lymphocytes preincubated
  inhibition of infection by preincubation of healthy lymphocytes prior to infection: inhibits the infection

## Cc1cn([C@H]2C[C@H](N=[N+]=[N-])[C@@H](CO)O2)c(=O)[nH]c1=O [AZT, 3'-azido-2',3'-dideoxythymidine]
HIV; human, in vivo
  side effects of treatment: severe side effects of treatment with AZT, in particular a degeneration of bone marrow
HIV
  clinical condition of AIDS patients: improvement of the clinical condition of patients

## C[C@@H]1[C@H](O)[C@@H](C)/C=C/C=C/C=C/C=C/C=C/C=C/C=C/[C@H](O[C@@H]2O[C@H](C)[C@@H](O)[C@H](N)[C@@H]2O)C[C@@H]2O[C@](O)(C[C@@H](O)C[C@@H](O)[C@H](O)CC[C@@H](O)C[C@@H](O)CC(=O)O[C@H]1C)C[C@H](O)[C@H]2C(=O)O [AmB, amphotericin B]
trypsin
  inhibition of trypsin (in words): a certain inhibitory activity on trypsin
trypsin; 10^-5 M
  inhibition at 10 µM: 30%
trypsin; 10^-6 M, read-out: % of inhibition of trypsin
  inhibition at 1 µM: 10%
trypsin; 10^-7 M
  inhibition at 0.1 µM: 5%
trypsin; [6]
  inhibition at 1 µM: ~10%
HRV14
  antiviral activity on HRV14 (in words): no detectable antiviral activity
[3]
  MCC: > 5 µM
[4]
  activity against enveloped DNA and RNA viruses and herpes virus strains: active in vitro
[5]
  side effects of prolonged treatment: frequent side effects such as fever or serious nephrotoxicity

## OC[C@@H]1CC[C@H](n2cnc3c(O)ncnc32)O1 [ddI, 2',3'-dideoxyinosine]
HIV
  clinical condition of AIDS patients: improvement of the clinical condition of patients

## N N'-(2,4'-methylmorpholino)-N"-ethylguanyl!amphotericin B [MCG]
HIV-1 [2]
  cell-protecting properties: does not possess, according to this study, cell-protecting properties
HIV-1 [2]; preincubation with the virus
  direct antiviral action: has a direct antiviral action

## C[C@@H]1[C@H](O)[C@@H](C)/C=C/C=C/C=C/C=C/C=C/C=C/C=C/[C@H](O[C@@H]2O[C@H](C)[C@@H](O)[C@H](NC(=O)C(N)CC(=O)O)[C@@H]2O)C[C@@H]2O[C@](O)(C[C@@H](O)C[C@@H](O)[C@H](O)CC[C@@H](O)C[C@@H](O)CC(=O)O[C@H]1C)C[C@H](O)[C@H]2C(=O)O (some centres unmarked) [N-aspartyl-AmB]
trypsin; 1 μM, FIG. 1, read-out: % inhibition of trypsin relative to a control without inhibitor
  inhibition at 1 µM: ~40%
